In EP1137645B1, “ALPHA-METHYLBENZYL-CONTAINING THIOUREA INHIBITORS OF HERPES VIRUSES CONTAINING A […] GROUP” (Wyeth, priority 1998, dated 2000):
Converted amounts (≈) assume the structure as drawn. Read-outs that look alike come from different tables or passages of the source.

Legend:
[1] = tested on: HCMV recombinant mutant virus whose genome contains the prokaryotic beta-glucuronidase gene; test: microbe, parasite or virus in culture; format: cell-based, human cytomegalovirus; settings: Human betaherpesvirus 5, Fibroblast
Method in brief: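 Human foreskin fibroblasts infected with HCMV recombinant carrying beta-glucuronidase under a viral promoter (e.g. RV145) in presence of compound. At 96 h post-infection, lysates assayed for beta-glucuronidase by colorimetric or fluorogenic substrate as replication readout; IC50 estimated from varying compound amounts.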

HSV- I = test: HSV antiviral (ELISA) assay; format: cell-based; settings: read-out: IC50 (ug/ml) HSV
Method in brief: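 Vero cells in DMEM with 2% FBS treated with compound 30 min before HSV-1 infection (MOI 0.006), then incubated ~24 h at 37°C. Viral replication measured by ELISA against glycoprotein D with β-galactosidase-linked secondary and fluorogenic substrate (ex 365/em 450 nm); IC50 relative to untreated fluorescence.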

VZV strain Ellen = test: VZV antiviral (ELISA) assay; format: cell-based
Method in brief: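 HFF cells infected with VZV Ellen at multiplicity below 0.1 overnight, then mixed infected/uninfected cells seeded with compound in DMEM/2% FBS and incubated three days at 37°C, 5% CO2.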

[2] = read-out: IC50 ug/ml HCMV, HCMV, human foreskin fibroblasts
[3] = Human alphaherpesvirus 3, HFF, read-out: % inhibition 10 ug/ml VZV
[4] = Human alphaherpesvirus 3, HFF, read-out: IC50 (ug/ml) VZV
[5] = Human alphaherpesvirus 3, HFF, read-out: IC50 (ug/ml) VZV, VZV strain Ellen, HFF cells, ELISA
[6] = Human alphaherpesvirus 3, VZV strain Ellen, HFF cells, ELISA, read-out: IC50 (ug/ml) VZV

Molecule `COc1cc(OC)c(NC(=S)Nc2ccc(NC(=O)c3ccc(F)cc3)cc2)cc1Cl` [Example 116, N-{4-[3-(5-Chloro-2,4-dimethoxy-phenyl)-thioureido]-phenyl}-4-fluoro-benzamide] has an IC50 [1, 2] of 3 µg/mL (≈ 6.52 µM), an IC50 (HSV- I; Vero) of 2 µg/mL (≈ 4.35 µM) and an inhibition at 10 µg/mL (VZV strain Ellen; [3]) of 0%. The IC50 (VZV strain Ellen; [4]) was > 10 µg/mL.

Work on `COc1cc(OC)c(NC(=S)Nc2ccc(NC(=O)c3ccccc3C)cc2)cc1Br` [Example 829, N-{4-[3-(5-Bromo-2,4-dimethoxy-phenyl)-thioureido]-phenyl}-2-methyl-benzamide] yielded an IC50 [1, 2] of 10 µg/mL (≈ 20 µM), an IC50 (HSV- I; HSV- I, Vero cells, ELISA) of 0.25 µg/mL (≈ 0.5 µM) and an inhibition at 10 µg/mL (VZV strain Ellen; [3]) of 50%. For the same molecule, the IC50 (VZV strain Ellen; [4]) was > 15 µg/mL.

`COc1cc(OC)c(NC(=S)Nc2ccc(NC(=O)c3ccccc3[S+](C)[O-])cc2)cc1Cl` (stereo not drawn) [Example 220, N-{4-[3-(5-Chloro-2,4-dimethoxy-phenyl)-thioureido]-phenyl}-2-methane-sulfinyl-benzamide] was tested, and the IC50 [1, 2] was > 10 µg/mL, the IC50 (HSV- I; Vero) was > 10 µg/mL and the inhibition at 10 µg/mL (VZV strain Ellen; [3]) was 35%. The IC50 (VZV strain Ellen; [5]) was > 10 µg/mL.

For `O=C(Nc1ccc(NC(=S)NCCc2ccc(F)cc2)cc1)c1ccccc1F` [Example 553, 2-Fluoro-N-(4-{3-[2-(4-fluoro-phenyl)-ethyl]-thioureido}-phenyl)-benzamide], the IC50 ([1]; read-out: IC50 ug/ml HCMV) was > 0.5 µg/mL, the IC50 (HSV- I; HSV- I, Vero cells, ELISA) was > 10 µg/mL and the IC50 (VZV strain Ellen; [6]) was 7 µg/mL (≈ 17 µM).

In the case of `CC(=O)Nc1cccc(NC(=S)Nc2ccc(NC(=O)c3ccccc3F)cc2)c1` [Example 477, N-{4-[3-(3-Acetylamino-phenyl)-thioureido]-phenyl}-2-fluoro-benzamide], the IC50 ([1]; read-out: IC50 ug/ml HCMV) is reported as > 10 µg/mL, the IC50 (HSV- I; HSV- I, Vero cells, ELISA) is reported as > 10 µg/mL and the inhibition at 10 µg/mL (VZV strain Ellen; Human alphaherpesvirus 3, read-out: % inhibition 10 ug/ml VZV, 10 ug/ml, VZV strain Ellen, HFF cells, ELISA) is reported as 15%. The IC50 (VZV strain Ellen; [6]) was > 10 µg/mL.

With `CCOC(=O)Nc1ccc(NC(=S)Nc2ccc(NC(=O)c3ccccc3F)cc2)cc1Cl` [Example 399, (2-Chloro-4-{3-[4-(2-fluoro-benzoylamino)-phenyl]-thioureido}-phenyl)-carbamic acid ethyl ester] the IC50 [1, 2] was 1.5 µg/mL (≈ 3.08 µM), the IC50 (HSV- I; Vero) was > 10 µg/mL and the inhibition at 10 µg/mL (VZV strain Ellen; [3]) was 59%. The IC50 (VZV strain Ellen; [5]) was > 10 µg/mL.

With `Cc1ccc(NC(=S)Nc2ccc(NC(=O)c3ccccc3C)cc2)cc1Cl` [Example 234, N-{4-[3-(3-Chloro-4-methyl-phenyl)-thioureido]-phenyl}-2-methyl-benzamide] the IC50 [1, 2] was 1 µg/mL (≈ 2.44 µM), the IC50 (HSV- I; HSV- I, Vero cells, ELISA) was 0.2 µg/mL (≈ 0.488 µM) and the inhibition at 10 µg/mL (VZV strain Ellen; [3]) was 68%. The IC50 (VZV strain Ellen; [4]) was > 10 µg/mL.

With `O=C(Nc1ccc(NC(=S)NCCCc2ccccc2)cc1)c1ccccc1F` [Example 628, 2-Fluoro-N-{4-[3-(3-phenyl-propyl)-thioureido]-phenyl}-benzamide] the IC50 [1, 2] was > 10 µg/mL, the IC50 (HSV- I; Vero) was > 10 µg/mL and the IC50 (VZV strain Ellen; [5]) was 10 µg/mL (≈ 24.5 µM).

With `O=C(Nc1ccc(NC(=S)Nc2ccccc2Cl)cc1)c1ccccc1F` [Example 948, N-{4-[3-(2-Chloro-phenyl)-thioureido]-phenyl}-2-fluoro-benzamide] the IC50 [1, 2] was 4 µg/mL (≈ 10 µM), the IC50 (HSV- I; HSV- I, Vero cells, ELISA) was 6 µg/mL (≈ 15 µM) and the inhibition at 10 µg/mL (VZV strain Ellen; [3]) was 4%. For the same molecule, the IC50 (VZV strain Ellen; [4]) was > 10 µg/mL.

Molecule `COc1cc(C)c(Cl)cc1NC(=S)Nc1ccc(NC(=O)c2c(F)cccc2F)cc1` [Example 333, N-{4-[3-(5-Chloro-2-methoxy-4-methyl-phenyl)-thioureido]-phenyl}-2,6-difluoro-benzamide] has an IC50 [1, 2] of 2.5 µg/mL (≈ 5.41 µM), an IC50 (HSV- I; HSV- I, Vero cells, ELISA) of 0.04 µg/mL (≈ 0.0866 µM) and an inhibition at 10 µg/mL (VZV strain Ellen; [3]) of 92%. For the same molecule, the IC50 (VZV strain Ellen; [4]) was 4.5 µg/mL (≈ 9.74 µM).

Molecule `CC(NC(=S)Nc1ccc(NC(=O)c2ccccc2F)cc1)c1ccc(N(C)C)cc1` (stereo not drawn) [Example 793, N-(4-{3-[1-(4-Dimethylamino-phenyl)-ethyl]-thioureido}-phenyl)-2-fluoro-benzamide] has an IC50 [1, 2] of 3.2 µg/mL (≈ 7.33 µM), an IC50 (HSV- I; Vero) of 9 µg/mL (≈ 20.6 µM) and an IC50 (VZV strain Ellen; [5]) of 3.1 µg/mL (≈ 7.1 µM).

`CC(NC(=S)Nc1ccc(NC(=O)c2ccccc2)cc1)c1ccc(F)cc1` (stereo not drawn) [Example 758, N-(4-{3-[1-(4-Fluoro-phenyl)-ethyl]-thioureido}-phenyl)-benzamide] was tested, and the IC50 ([1]; read-out: IC50 ug/ml HCMV) was > 10 µg/mL, the IC50 (HSV- I; HSV- I, Vero cells, ELISA) was > 10 µg/mL and the IC50 (VZV strain Ellen; [6]) was > 10 µg/mL.

With `CC(NC(=S)Nc1ccc(NC(=O)c2ccccc2F)cc1)c1ccccc1` (stereo not drawn) [Example 589, 2-Fluoro-N-{4-[3-(1-phenyl-ethyl)-thioureido]-phenyl}-benzamide] the IC50 ([1]; read-out: IC50 ug/ml HCMV) was 7 µg/mL (≈ 17.8 µM), the IC50 (HSV- I; HSV- I, Vero cells, ELISA) was > 10 µg/mL and the IC50 (VZV strain Ellen; [6]) was 0.36 µg/mL (≈ 0.915 µM).

`CN1CCC(N(C)c2ccc(NC(=S)Nc3ccc(NC(=O)c4ccccc4F)cc3)cc2Cl)C1` (stereo not drawn) [Example 332, N-[4-(3-{3-Chloro-4-[methyl-(1-methyl-pyrrolidin-3-yl)-amino]-phenyl}-thioureido)-phenyl]-2-fluoro-benzamide] was tested, and the IC50 [1, 2] was 0.9 µg/mL (≈ 1.76 µM), the IC50 (HSV- I; HSV- I, Vero cells, ELISA) was 1 µg/mL (≈ 1.95 µM) and the inhibition at 10 µg/mL (VZV strain Ellen; [3]) was 90%. The IC50 (VZV strain Ellen; [4]) was 8 µg/mL (≈ 15.6 µM).

`CC(NC(=S)Nc1ccc(NC(=O)c2cc3ccccc3o2)cc1)c1ccc(F)cc1` (stereo not drawn) [Example 980, Benzofuran-2-carboxylic acid (4-{3-[1-(4-fluoro-phenyl)-ethyl]-thioureido}-phenyl)-amide] was tested, and the IC50 [1, 2] was > 10 µg/mL, the IC50 (HSV- I; HSV- I, Vero cells, ELISA) was > 10 µg/mL and the IC50 (VZV strain Ellen; [4]) was 0.15 µg/mL (≈ 0.346 µM).

Molecule `COc1cc(OC)c(NC(=S)Nc2ccc(NC(=O)c3cccc(NS(C)(=O)=O)c3)cc2)cc1Cl` [Example 137, N-{4-[3-(5-Chloro-2,4-dimethoxy-phenyl)-thioureido]-phenyl}-3-methane-sulfony-amino-benzamide] has an IC50 [1, 2] of 10 µg/mL (≈ 18.7 µM), an IC50 (HSV- I; Vero) of 10 µg/mL (≈ 18.7 µM) and an inhibition at 10 µg/mL (VZV strain Ellen; [3]) of 72%. For the same molecule, the IC50 (VZV strain Ellen; [5]) was > 15 µg/mL.

In the case of `COc1cc(OC)c(NC(=S)Nc2ccc(NC(=O)c3ccccc3[N+](=O)[O-])cc2)cc1Cl` [Example 143, N-{4-[3-(5-Chloro-2,4-dimethoxy-phenyl)-thioureido]-phenyl}-2-nitro-benzamide], the IC50 [1, 2] is reported as > 10 µg/mL, the IC50 (HSV- I; HSV- I, Vero cells, ELISA) is reported as 1 µg/mL (≈ 2.05 µM) and the inhibition at 10 µg/mL (VZV strain Ellen; [3]) is reported as 68%. The IC50 (VZV strain Ellen; [4]) was > 15 µg/mL.

With `O=C(Nc1ccc(NC(=S)NC(CO)c2ccccc2)cc1)c1ccccc1F` (stereo not drawn) [Example 797, 2-Fluoro-N-{4-[3-(2-hydroxy-1-phenyl-ethyl)-thioureido]-phenyl}-benzamide] the IC50 ([1]; read-out: IC50 ug/ml HCMV) was > 10 µg/mL, the IC50 (HSV- I; HSV- I, Vero cells, ELISA) was > 10 µg/mL and the IC50 (VZV strain Ellen; [6]) was 1.7 µg/mL (≈ 4.15 µM).

`COc1cc(OC)c(NC(=S)Nc2ccc(NC(=O)c3ccccc3O)cc2)cc1Cl` [Example 139, N-{4-[3-(5-Chloro-2,4-dimethoxy-phenyl)-thioureido]-phenyl}-2-hydroxy-benzamide] was tested, and the IC50 [1, 2] was 6 µg/mL (≈ 13.1 µM), the IC50 (HSV- I; HSV- I, Vero cells, ELISA) was 6 µg/mL (≈ 13.1 µM) and the inhibition at 10 µg/mL (VZV strain Ellen; [3]) was 95%. It also gave an IC50 (VZV strain Ellen; [4]) of 4 µg/mL (≈ 8.73 µM).

`CCCCNS(=O)(=O)c1cccc(NC(=S)Nc2ccc(NC(=O)c3ccccc3F)cc2)c1` [Example 966, N-{4-[3-(3-Butylsulfamoyl-phenyl)-thioureido]-phenyl}-2-fluoro-benzamide] gave an IC50 [1, 2] of 2.5 µg/mL (≈ 4.99 µM), an IC50 (HSV- I; HSV- I, Vero cells, ELISA) of 7 µg/mL (≈ 14 µM) and an inhibition at 10 µg/mL (VZV strain Ellen; [3]) of 95%. The IC50 (VZV strain Ellen; [4]) was 8 µg/mL (≈ 16 µM).

`CC1CCCCN1CC(=O)Nc1ccc(NC(=S)Nc2ccc(NC(=O)c3ccccc3F)cc2)cc1Cl` (stereo not drawn) [Example 425, N-[4-(3-{3-Chloro-4-[2-(2-methyl-piperidin-1-yl)-acetylamino]-phenyl}-thioureido)-phenyl]-2-fluoro-benzamide] was tested, and the IC50 [1, 2] was 0.5 µg/mL (≈ 0.902 µM), the IC50 (HSV- I; Vero) was 3 µg/mL (≈ 5.41 µM) and the inhibition at 10 µg/mL (VZV strain Ellen; [3]) was 103%. For the same molecule, the IC50 (VZV strain Ellen; [4]) was > 7.5 µg/mL.

For `Cc1ccc(NC(=S)Nc2ccc(NC(=O)c3ccccc3F)cc2)cc1F` [Example 997, 2-Fluoro-N-{4-[3-(3-fluoro-4-methyl-phenyl)-thioureido]-phenyl}-benzamide], the IC50 ([1]; read-out: IC50 ug/ml HCMV) was 4 µg/mL (≈ 10.1 µM), the IC50 (HSV- I; HSV- I, Vero cells, ELISA) was 1.9 µg/mL (≈ 4.78 µM) and the IC50 (VZV strain Ellen; [6]) was > 10 µg/mL.

In the case of `Cc1ccc(NC(=S)Nc2ccc(NC(=O)c3ccccc3F)c(C)c2)cc1Cl` [Example 395, N-{4-[3-(3-Chloro-4-methyl-phenyl)-thioureido]-2-methyl-phenyl}-2-fluoro-benzamide], the IC50 [1, 2] is reported as 3 µg/mL (≈ 7.01 µM), the IC50 (HSV- I; HSV- I, Vero cells, ELISA) is reported as 0.2 µg/mL (≈ 0.467 µM) and the inhibition at 10 µg/mL (VZV strain Ellen; [3]) is reported as 64%. The IC50 (VZV strain Ellen; [4]) was > 10 µg/mL.
